Among the data in US11433072B1 (Hikma Pharmaceuticals USA Inc., priority 2021, dated 2022) are Solubility values, retold here.

Like-named read-outs stand apart in the source and are kept apart here.

The conditions of data set [1]: acidic environment; data not shown.
For data set [2] the following is noted: cited from earlier work.

Consider `C=CC(=O)N1CCC[C@@H](n2nc(-c3ccc(Oc4ccccc4)cc3)c3c(N)ncnc32)C1` [ibrutinib, 1-(3R)-3-(4-amino-3-(4-phenoxyphenyl)-1H-pyrazolo[3,4-d]pryimidin-1-yl)prop-2-en-1-one], for which the Solubility result in data set [1] is listed as “higher in an acidic environment”; in data set [2] (HCl at pH 1.2) it was “slightly soluble”; in data set [2] (aqueous solutions of pH 4.5-8), “practically insoluble”.
